Source: patent publication US20080188494A1 (priority 2005, published 2008)

Experiments:
Plasmopara viticola [1] = experiment: Activity against peronospora of grapevines caused by Plasmopara viticola, 7 day protective treatment (Comparative Example 2); format: in vivo; conditions: 250 ppm, potted vines, inoculated 7 days after spraying; untreated plants 90% infected
Description: (§1) The active compounds were prepared as a stock solution comprising 25 mg of active compound which was made up to 10 ml using a mixture of acetone and/or DMSO and the emulsifier Uniperol® EL (wetting agent having emulsifying and dispersing action based on ethoxylated alkylphenols) in a volume ratio of solvent/emulsifier of 99/1. The mixture was then made up to 100 ml with water. This stock solution was diluted with the solvent/emulsifier/water mixture described to the concentration of active compounds stated below.
Leaves of potted vines were sprayed to runoff point with an aqueous suspension having the concentration of active compounds stated below. To be able to assess the persistency of the substances, the plants were, after the spray coating had dried on, placed in a greenhouse for 7 days. Only then were the leaves inoculated with an aqueous zoospore suspension of Plasmopara viticola. The vines were then initially placed in a water-vapor-saturated chamber at 24° C. for 48 hours and then in a greenhouse at temperatures between 20 and 30° C. for 5 days. After this time, the plants were once more placed in a humid chamber to accelerate the eruption of sporangiospores. The extent of the development of the infection on the undersides of the leaves was then determined visually.

Plasmopara viticola [2] = experiment: Activity against peronospora of grapevines caused by Plasmopara viticola (Comparative Example 1, inoculation next day); format: in vivo; conditions: 250 ppm, potted vines sprayed to runoff, inoculated next day; untreated plants 90% infected
Description: as §1
(§2) Leaves of potted vines were sprayed to runoff point with an aqueous suspension having the concentration of active compounds stated below. The next day, the undersides of the leaves were inoculated with an aqueous sporangia suspension of Plasmopara viticola. The vines were then initially placed in a water-vapor-saturated chamber at 24° C. for 48 hours and then in a greenhouse at temperatures between 20° C. and 30° C. for 5 days. After this time, the plants were once more placed in a humid chamber for 16 hours to accelerate the eruption of sporangiospores. The extent of the development of the infection on the undersides of the leaves was then determined visually.

Plasmopara viticola [3] = experiment: Activity against peronospora of grapevines caused by Plasmopara viticola (Use Example 3); format: in vivo; conditions: 250 ppm, potted vines sprayed to runoff, inoculated next day; untreated plants 90% infected
Description: as §1, §2

Row | Compound | infection of the plants (undersides of leaves, determined visually) (Plasmopara viticola [1]) | infection of the plants (undersides of leaves, determined visually) (Plasmopara viticola [2]) | infection of the plants (undersides of leaves, determined visually) (Plasmopara viticola [3]) | melting point
1 | Cc1nc2ncnn2c(N)c1CCCc1ccccc1 [Compound A] | 70% | 90% |  | 
2 | CCc1nc2ncnn2c(N)c1CCc1ccccc1 [I-1, 7-amino-5-ethyl-6-(2-phenylethyl)-(1,2,4)-triazolo-(1,5-a)-pyrimidine] |  |  | no infection | 210 to 211 °C
3 | CCCc1nc2ncnn2c(N)c1CCc1ccccc1 [I-2, 7-amino-6-(2-phenylethyl)-5-propyl-(1,2,4)-triazolo-(1,5-a)-pyrimidine] |  |  | no infection | 190 to 191 °C
